Experimental data taken from BindingDB's records for PubMed 9023294 (Sanofi Recherche, 1997).

Columns and labels:
Neurotensin = Neurotensin (Cavia porcellus, UniProt P32560)
Neurotensin/neuromedin N = target: T1, Neurotensin/neuromedin N (Human, UniProt P30990)
T1 sequence (P30990 whole entry): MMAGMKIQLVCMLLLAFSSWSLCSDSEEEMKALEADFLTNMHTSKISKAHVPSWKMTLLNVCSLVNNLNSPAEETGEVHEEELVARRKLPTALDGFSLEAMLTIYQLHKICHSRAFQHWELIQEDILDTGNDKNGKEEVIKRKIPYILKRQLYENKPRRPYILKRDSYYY

Ki (Neurotensin) | Ki (Neurotensin/neuromedin N) | Compound
3.9 nM | – | COc1cccc(OC)c1-c1cc(C(=O)NC2(C(=O)O)C3CC4CC(C3)CC2C4)nn1-c1ccnc2cc(Cl)ccc12 (stereo not drawn)
0.17 nM | 0.28 nM | COc1cccc(OC)c1-c1cc(C(=O)NC2(C(=O)O)C3CC4CC(C3)CC2C4)nn1-c1ccc(C(=O)N(C)CCCN(C)C)cc1C(C)C (stereo not drawn) [SR142948A]
